Each block holds one compound with its values, some of them ahead of it. The source made the active and inactive calls. No cut-off for these calls is given here.
Legend:
[1] = molecular target: T1, Histone acetyltransferase GCN5 (Saccharomyces cerevisiae S288c, UniProt Q03330); assay: Inhibition of yeast GCN5 (99 to 262 residues) expressed in Escherichia coli BL21 (DE3) preincubated for 15 mins followed by biotin tagged H3 peptide ( 1 to 23 residues) and [3H]-Ac-CoA addition and measured after 60 mins by radioactive acetylation assay
T1 sequence (Q03330 whole entry, the tested form may be a part): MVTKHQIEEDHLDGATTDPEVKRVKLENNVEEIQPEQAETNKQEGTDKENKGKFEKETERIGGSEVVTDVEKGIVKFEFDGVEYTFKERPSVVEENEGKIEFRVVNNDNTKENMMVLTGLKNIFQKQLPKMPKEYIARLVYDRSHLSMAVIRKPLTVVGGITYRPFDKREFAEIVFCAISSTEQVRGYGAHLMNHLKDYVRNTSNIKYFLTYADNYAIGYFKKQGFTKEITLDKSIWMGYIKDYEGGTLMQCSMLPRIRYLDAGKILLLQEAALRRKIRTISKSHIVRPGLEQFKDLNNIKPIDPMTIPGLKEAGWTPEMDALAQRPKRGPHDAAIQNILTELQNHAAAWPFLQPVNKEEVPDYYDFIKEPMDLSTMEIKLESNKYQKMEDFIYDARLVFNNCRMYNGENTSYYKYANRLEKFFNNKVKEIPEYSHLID

[2] = molecular target: Histone acetyltransferase GCN5 (Saccharomyces cerevisiae S288c) (UniProt Q03330); assay: Inhibition of yeast GCN5 (99 to 262 residues) expressed in Escherichia coli BL21 (DE3) at 100 uM using biotin tagged H3 peptide ( 1 to 23 residues) as substrate preincubated for 30 mins followed by AC-CoA and substrate addition and measured after 30 mins by AlphaScreen assay
Chain of Histone acetyltransferase GCN5 (Saccharomyces cerevisiae S288c) (Q03330 whole entry, the tested form may be a part): as above

[3] = molecular target: T1, Histone acetyltransferase GCN5; assay: Binding affinity to yeast GCN5 (99 to 262 residues) expressed in Escherichia coli BL21 (DE3) by SPR analysis
MV4-11 [4] = assay: Antiproliferative activity against human MV4-11 cells after 3 days by celltiter-glo luminescent assay; type: functional, cell-based; settings: for IC50: MV4-11, 72 h
HUVEC = assay: Antiproliferative activity against HUVEC after 3 days by celltiter-glo luminescent assay; type: cell-based; settings: human, 72 h
[5] = Antiproliferative activity against human […] cells after 3 days by celltiter-glo luminescent assay; type: cell-based; settings: 72 h
MV4-11 [6] = assay: Induction of apoptosis in human MV4-11 cells after 72 hrs by Annexin-V FITC/propidium iodide staining based flow cytometric analysis; type: functional, cell-based
MV4-11 [7] = assay: Induction of apoptosis in human MV4-11 cells assessed as early apototic cells at 20 uM after 72 hrs by Annexin-V FITC/propidium iodide staining based flow cytometric analysis (reference value: 0.75%); type: functional
MV4-11 [8] = assay: Induction of apoptosis in human MV4-11 cells assessed as late apototic cells at 20 uM after 72 hrs by Annexin-V FITC/propidium iodide staining based flow cytometric analysis (reference value: 3.41%); type: functional
MV4-11 [9] = assay: Induction of apoptosis in human MV4-11 cells assessed as necrotic cells at 20 uM after 72 hrs by Annexin-V FITC/propidium iodide staining based flow cytometric analysis (reference value: 0.66%); type: functional
MV4-11 [10] = assay: Induction of apoptosis in human MV4-11 cells assessed as viable cells at 20 uM after 72 hrs by Annexin-V FITC/propidium iodide staining based flow cytometric analysis (reference value: 95.2%); type: functional; settings: MV4-11, 72 h, read-out: Activity
MV4-11 [11] = assay: Induction of apoptosis in human MV4-11 cells assessed as early apototic cells at 40 uM after 72 hrs by Annexin-V FITC/propidium iodide staining based flow cytometric analysis (reference value: 0.75%); type: functional
MV4-11 [12] = assay: Induction of apoptosis in human MV4-11 cells assessed as late apototic cells at 40 uM after 72 hrs by Annexin-V FITC/propidium iodide staining based flow cytometric analysis (reference value: 3.41%); type: functional
MV4-11 [13] = assay: Induction of apoptosis in human MV4-11 cells assessed as necrotic cells at 40 uM after 72 hrs by Annexin-V FITC/propidium iodide staining based flow cytometric analysis (reference value: 0.66%); type: functional
MV4-11 [14] = assay: Induction of apoptosis in human MV4-11 cells assessed as viable cells at 40 uM after 72 hrs by Annexin-V FITC/propidium iodide staining based flow cytometric analysis (reference value: 95.2%); type: functional; settings: MV4-11, 72 h, read-out: Activity
MV4-11 [15] = assay: Cell cycle arrest in human MV4-11 cells accumulation at G0/G1 phase after 24 hrs bby propidium iodide staining-based flow cytometric analysis; type: functional
MV4-11 [16] = assay: Cell cycle arrest in human MV4-11 cells accumulation at G1 phase at 12.5 uM after 24 hrs bby propidium iodide staining-based flow cytometric analysis (reference value: 52.56%); type: functional
MV4-11 [17] = assay: Cell cycle arrest in human MV4-11 cells accumulation at S phase at 12.5 uM after 24 hrs bby propidium iodide staining-based flow cytometric analysis (reference value: 42.77%); type: functional
MV4-11 [18] = assay: Cell cycle arrest in human MV4-11 cells accumulation at G2 phase at 12.5 uM after 24 hrs bby propidium iodide staining-based flow cytometric analysis (reference value: 4.68%); type: functional
MV4-11 [19] = assay: Cell cycle arrest in human MV4-11 cells accumulation at G1 phase at 25 uM after 24 hrs bby propidium iodide staining-based flow cytometric analysis (reference value: 52.56%); type: functional
MV4-11 [20] = assay: Cell cycle arrest in human MV4-11 cells accumulation at S phase at 25 uM after 24 hrs bby propidium iodide staining-based flow cytometric analysis (reference value: 42.77%); type: functional
MV4-11 [21] = assay: Cell cycle arrest in human MV4-11 cells accumulation at G2 phase at 25 uM after 24 hrs bby propidium iodide staining-based flow cytometric analysis (reference value: 4.68%); type: functional
[22] = molecular target: Histone acetyltransferase KAT2A (Homo sapiens) (UniProt Q92830); assay: Inhibition of GCN5 in human MV4-11 cells assessed as reduction of acetylated H3K14 level up to 100 uM after 24 hrs by Western blot analysis; type: cell-based
Chain of Histone acetyltransferase KAT2A (Homo sapiens) (Q92830 2-837 limits assumed): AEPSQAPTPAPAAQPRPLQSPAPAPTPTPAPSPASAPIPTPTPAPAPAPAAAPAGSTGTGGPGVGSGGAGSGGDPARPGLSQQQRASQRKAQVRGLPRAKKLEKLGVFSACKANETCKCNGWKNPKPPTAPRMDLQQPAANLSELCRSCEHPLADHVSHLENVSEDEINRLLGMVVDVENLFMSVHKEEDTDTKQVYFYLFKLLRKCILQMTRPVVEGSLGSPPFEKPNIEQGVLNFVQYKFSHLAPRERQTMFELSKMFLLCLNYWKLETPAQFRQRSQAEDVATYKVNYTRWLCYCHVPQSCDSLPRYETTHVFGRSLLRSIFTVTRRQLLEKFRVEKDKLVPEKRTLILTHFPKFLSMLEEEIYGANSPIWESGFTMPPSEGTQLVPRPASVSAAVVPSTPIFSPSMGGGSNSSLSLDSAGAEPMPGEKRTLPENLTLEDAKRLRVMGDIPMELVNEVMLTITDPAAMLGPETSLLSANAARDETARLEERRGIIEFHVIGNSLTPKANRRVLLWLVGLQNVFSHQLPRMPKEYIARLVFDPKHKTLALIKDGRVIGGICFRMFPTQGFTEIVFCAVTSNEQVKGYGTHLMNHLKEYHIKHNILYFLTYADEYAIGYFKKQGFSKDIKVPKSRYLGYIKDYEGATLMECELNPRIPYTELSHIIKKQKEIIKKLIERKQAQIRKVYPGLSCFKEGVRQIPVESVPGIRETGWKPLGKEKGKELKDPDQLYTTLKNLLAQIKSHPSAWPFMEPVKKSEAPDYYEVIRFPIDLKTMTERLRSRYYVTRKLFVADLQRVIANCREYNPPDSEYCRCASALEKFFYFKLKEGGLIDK

[23] = molecular target: Histone acetyltransferase p300 (Homo sapiens) (UniProt Q09472); assay: Inhibition of p300 (unknown origin) at 33 uM relative to control
Chain of Histone acetyltransferase p300 (Homo sapiens) (Q09472 whole entry): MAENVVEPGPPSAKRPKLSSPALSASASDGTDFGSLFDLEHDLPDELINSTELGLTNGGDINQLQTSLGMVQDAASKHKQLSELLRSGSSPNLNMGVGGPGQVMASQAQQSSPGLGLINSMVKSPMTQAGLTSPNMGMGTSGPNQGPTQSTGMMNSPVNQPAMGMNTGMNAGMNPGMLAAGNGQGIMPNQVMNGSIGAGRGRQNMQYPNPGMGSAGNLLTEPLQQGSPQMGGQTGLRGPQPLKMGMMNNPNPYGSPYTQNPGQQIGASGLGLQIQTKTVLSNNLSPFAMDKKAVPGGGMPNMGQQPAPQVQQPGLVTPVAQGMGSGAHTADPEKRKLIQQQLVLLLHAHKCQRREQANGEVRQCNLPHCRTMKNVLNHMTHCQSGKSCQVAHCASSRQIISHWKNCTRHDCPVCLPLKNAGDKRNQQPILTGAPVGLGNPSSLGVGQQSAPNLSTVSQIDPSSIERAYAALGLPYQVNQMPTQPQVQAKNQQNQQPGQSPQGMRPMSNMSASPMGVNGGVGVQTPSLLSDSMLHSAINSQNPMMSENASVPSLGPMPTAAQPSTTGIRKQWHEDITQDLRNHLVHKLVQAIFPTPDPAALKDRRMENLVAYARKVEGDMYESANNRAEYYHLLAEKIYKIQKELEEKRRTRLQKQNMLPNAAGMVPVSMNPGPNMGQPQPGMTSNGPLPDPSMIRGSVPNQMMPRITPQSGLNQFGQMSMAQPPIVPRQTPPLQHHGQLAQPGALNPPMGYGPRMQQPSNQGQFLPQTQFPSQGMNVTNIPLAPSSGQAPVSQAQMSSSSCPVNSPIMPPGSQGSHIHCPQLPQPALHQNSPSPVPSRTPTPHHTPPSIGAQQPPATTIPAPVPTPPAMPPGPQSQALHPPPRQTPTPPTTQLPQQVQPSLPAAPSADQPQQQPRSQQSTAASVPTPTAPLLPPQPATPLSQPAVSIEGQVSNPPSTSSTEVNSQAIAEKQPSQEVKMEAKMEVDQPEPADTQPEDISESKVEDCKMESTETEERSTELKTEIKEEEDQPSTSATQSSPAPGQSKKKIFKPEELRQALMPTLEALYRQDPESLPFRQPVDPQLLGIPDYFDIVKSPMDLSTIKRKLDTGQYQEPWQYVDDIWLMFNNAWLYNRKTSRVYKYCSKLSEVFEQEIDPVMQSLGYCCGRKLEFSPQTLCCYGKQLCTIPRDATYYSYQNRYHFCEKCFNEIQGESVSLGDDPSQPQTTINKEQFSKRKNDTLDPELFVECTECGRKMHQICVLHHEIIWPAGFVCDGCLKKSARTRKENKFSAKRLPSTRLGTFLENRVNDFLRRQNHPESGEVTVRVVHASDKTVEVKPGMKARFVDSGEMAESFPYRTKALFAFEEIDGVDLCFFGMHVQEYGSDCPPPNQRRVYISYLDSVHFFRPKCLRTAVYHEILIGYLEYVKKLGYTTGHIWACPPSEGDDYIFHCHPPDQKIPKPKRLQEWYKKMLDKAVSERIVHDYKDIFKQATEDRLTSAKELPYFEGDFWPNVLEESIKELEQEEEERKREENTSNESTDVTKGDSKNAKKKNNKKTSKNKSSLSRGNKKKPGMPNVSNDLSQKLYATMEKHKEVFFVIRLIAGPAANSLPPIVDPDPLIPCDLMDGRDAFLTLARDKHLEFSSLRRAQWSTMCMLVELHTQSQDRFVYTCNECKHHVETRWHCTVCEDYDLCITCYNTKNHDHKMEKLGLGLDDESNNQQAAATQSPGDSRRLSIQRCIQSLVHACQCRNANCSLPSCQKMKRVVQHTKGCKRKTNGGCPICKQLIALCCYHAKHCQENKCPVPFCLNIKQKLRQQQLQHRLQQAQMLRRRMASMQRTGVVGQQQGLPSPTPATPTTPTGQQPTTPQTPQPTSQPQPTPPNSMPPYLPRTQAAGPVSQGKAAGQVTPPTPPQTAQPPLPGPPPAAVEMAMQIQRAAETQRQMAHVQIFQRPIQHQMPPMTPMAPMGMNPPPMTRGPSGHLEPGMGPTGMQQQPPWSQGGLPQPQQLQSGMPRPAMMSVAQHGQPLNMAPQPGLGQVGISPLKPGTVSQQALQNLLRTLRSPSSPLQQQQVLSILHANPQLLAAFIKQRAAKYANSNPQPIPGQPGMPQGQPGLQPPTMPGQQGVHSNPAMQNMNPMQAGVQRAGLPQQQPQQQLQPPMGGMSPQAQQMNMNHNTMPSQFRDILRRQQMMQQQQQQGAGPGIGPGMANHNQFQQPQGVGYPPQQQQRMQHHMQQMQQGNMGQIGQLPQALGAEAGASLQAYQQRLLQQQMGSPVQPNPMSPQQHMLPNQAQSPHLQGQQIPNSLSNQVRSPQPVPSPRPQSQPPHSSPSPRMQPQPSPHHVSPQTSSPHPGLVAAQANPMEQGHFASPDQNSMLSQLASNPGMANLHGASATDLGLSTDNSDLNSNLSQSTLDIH

[24] = molecular target: Histone-lysine N-methyltransferase EZH2 (Homo sapiens) (UniProt Q15910); assay: Inhibition of EZH2 (unknown origin) at 33 uM relative to control
Chain of Histone-lysine N-methyltransferase EZH2 (Homo sapiens) (Q15910 whole entry, looked up): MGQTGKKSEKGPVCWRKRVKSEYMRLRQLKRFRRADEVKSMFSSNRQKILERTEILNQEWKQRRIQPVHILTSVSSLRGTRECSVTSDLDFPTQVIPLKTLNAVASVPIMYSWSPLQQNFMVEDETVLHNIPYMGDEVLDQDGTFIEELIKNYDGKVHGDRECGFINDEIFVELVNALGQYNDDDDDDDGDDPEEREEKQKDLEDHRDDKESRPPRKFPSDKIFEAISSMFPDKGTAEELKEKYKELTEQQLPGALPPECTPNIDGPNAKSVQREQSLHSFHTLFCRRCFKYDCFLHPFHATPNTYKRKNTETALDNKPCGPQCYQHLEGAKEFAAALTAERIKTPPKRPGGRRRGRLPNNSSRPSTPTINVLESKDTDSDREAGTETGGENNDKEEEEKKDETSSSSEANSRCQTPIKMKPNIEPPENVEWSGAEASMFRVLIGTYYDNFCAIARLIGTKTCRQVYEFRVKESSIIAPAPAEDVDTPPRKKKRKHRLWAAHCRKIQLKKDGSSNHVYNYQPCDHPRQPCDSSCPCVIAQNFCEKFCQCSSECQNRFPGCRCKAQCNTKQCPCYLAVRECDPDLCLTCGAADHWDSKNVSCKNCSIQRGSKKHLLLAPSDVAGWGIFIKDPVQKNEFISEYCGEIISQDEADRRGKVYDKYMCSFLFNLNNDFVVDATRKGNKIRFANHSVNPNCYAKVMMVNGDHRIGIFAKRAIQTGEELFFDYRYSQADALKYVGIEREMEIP

[25] = molecular target: T2, Histone-lysine N-methyltransferase EHMT2 (Homo sapiens) (UniProt Q96KQ7); assay: Inhibition of G9a (unknown origin) at 33 uM relative to control
T2 sequence (whole entry): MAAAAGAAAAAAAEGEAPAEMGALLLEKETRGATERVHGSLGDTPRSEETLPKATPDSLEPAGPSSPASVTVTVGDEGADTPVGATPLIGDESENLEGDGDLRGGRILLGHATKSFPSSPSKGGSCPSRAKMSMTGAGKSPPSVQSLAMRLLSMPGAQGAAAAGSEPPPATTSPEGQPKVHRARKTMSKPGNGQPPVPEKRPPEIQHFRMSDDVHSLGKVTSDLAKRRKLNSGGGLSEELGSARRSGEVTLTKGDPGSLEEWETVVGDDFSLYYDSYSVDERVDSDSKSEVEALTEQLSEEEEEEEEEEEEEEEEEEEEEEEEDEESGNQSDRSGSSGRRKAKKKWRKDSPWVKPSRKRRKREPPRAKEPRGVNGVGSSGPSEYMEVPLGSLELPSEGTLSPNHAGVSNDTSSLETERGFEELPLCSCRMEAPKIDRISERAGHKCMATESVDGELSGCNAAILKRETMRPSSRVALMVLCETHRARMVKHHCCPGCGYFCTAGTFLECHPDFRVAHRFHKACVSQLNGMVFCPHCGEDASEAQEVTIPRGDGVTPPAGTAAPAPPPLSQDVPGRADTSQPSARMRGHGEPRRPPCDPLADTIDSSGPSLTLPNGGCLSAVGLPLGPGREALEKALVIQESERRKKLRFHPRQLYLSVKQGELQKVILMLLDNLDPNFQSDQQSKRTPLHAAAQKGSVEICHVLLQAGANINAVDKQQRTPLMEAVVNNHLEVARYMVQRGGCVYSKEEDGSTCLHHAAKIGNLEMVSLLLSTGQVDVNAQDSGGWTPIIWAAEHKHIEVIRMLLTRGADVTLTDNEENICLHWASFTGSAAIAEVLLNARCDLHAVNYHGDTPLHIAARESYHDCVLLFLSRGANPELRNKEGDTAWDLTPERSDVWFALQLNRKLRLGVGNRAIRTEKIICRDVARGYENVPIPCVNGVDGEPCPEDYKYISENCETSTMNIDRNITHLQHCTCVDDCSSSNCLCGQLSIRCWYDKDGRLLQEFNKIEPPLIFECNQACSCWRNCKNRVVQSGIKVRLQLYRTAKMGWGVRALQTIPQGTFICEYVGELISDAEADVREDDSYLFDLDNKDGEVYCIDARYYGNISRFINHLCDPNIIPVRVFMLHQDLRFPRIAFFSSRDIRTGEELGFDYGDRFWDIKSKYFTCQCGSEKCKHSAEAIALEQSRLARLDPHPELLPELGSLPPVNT

[26] = molecular target: Histone acetyltransferase GCN5 (Saccharomyces cerevisiae S288c) (UniProt Q03330); assay: Inhibition of yeast GCN5 (99 to 262 residues) expressed in Escherichia coli BL21 (DE3) at 33 uM preincubated for 15 mins followed by biotin tagged H3 peptide ( 1 to 23 residues) and [3H]-Ac-CoA addition and measured after 60 mins by radioactive acetylation assay
[27] = molecular target: Histone acetyltransferase GCN5 (Saccharomyces cerevisiae S288c) (UniProt Q03330); assay: Binding affinity to yeast GCN5 (99 to 262 residues) expressed in Escherichia coli BL21 (DE3) at 200 uM by CPMG NMR spectroscopy
[28] = molecular target: Histone acetyltransferase GCN5 (Saccharomyces cerevisiae S288c) (UniProt Q03330); assay: Binding affinity to yeast GCN5 (99 to 262 residues) expressed in Escherichia coli BL21 (DE3) at 200 uM by STD NMR spectroscopy

IC50 [1]: 8.6 µM | inhibition [2]: > 70%
Compound: O=C(O)c1ccc(-c2nc3c4ccccc4c4ccccc4c3[nH]2)cc1

IC50 [1]: 20 µM | inhibition [2]: > 70%
Compound: N#Cc1c(-c2ccc(F)cc2)cc(-c2cccs2)nc1SCC(=O)NCC(=O)O

IC50 [1]: 34 µM
Compound: O=C1CCCC2=C1C(c1ccc(OCc3ccc(C(=O)O)cc3)cc1)c1ccc3ccccc3c1N2 (stereo not drawn)

IC50 [1]: 19 µM | inhibition [2]: > 70%
Compound: O=c1cc(O)c2sc3nc(-c4cccs4)cc(C(F)(F)F)c3c2[nH]1

IC50 [1]: 2.9 µM | inhibition [2]: > 70%
Compound: COC(=O)c1cc(NC(=O)Cc2cccs2)cc(C(=O)OC)c1

inhibition [2]: > 70%
Compound: CN(C)CCOc1ccc(NC2Cc3ccccc3CSc3ccccc32)cc1 (stereo not drawn)

inhibition [26]: 34%
Compound: CC1=C(C#N)C(c2ccc(OCc3ccc(C(=O)O)cc3)cc2)C2=C(CCCC2=O)N1 (stereo not drawn)

inhibition [2]: > 70%
Compound: COc1cc(CNC2CCCC2)ccc1OCC(=O)NC(C)(C)C

inhibition [26]: 15%
Compound: CC1(C)CC(=O)C2=C(C1)NC1=C(C(=O)CC(C)(C)C1)C2c1ccc(OCc2ccccc2)c(Br)c1

inhibition [26]: 18%
Compound: CC1(C)CC(=O)C2=C(C1)NC1=C(C(=O)CC(C)(C)C1)C2c1ccc(O)c(Br)c1

More lines, now with the values behind:

Compound: CC1(C)CC(=O)C2=C(C1)NC1=C(C(=O)CC(C)(C)C1)C2c1cc(Br)c(OCc2ccc(C(=O)O)cc2)c(Br)c1
IC50 [1]: 6.8 µM | Kd [3]: 4.2 µM | Activity (MV4-11 [4]): Dose-dependent effect | IC50 (MV4-11 [4]): 24.7 µM | Activity (HUVEC): Non-Toxic | Activity [5]: Non-Toxic | Activity (MV4-11 [6]): Dose-dependent effect | Activity (MV4-11 [7]): 0.81% | Activity (MV4-11 [8]): 16.2% | Activity (MV4-11 [9]): 0.41% | viability at 20 µM (MV4-11 [10]): 82.5% | Activity (MV4-11 [11]): 0.7% | Activity (MV4-11 [12]): 54.6% | Activity (MV4-11 [13]): 2.32% | viability at 40 µM (MV4-11 [14]): 42.4% | Activity (MV4-11 [15]): Dose-dependent effect | Activity (MV4-11 [16]): 72.36% | Activity (MV4-11 [17]): 26.29% | Activity (MV4-11 [18]): 1.35% | Activity (MV4-11 [19]): 84.7% | Activity (MV4-11 [20]): 13.99% | Activity (MV4-11 [21]): 1.3% | inhibition [22]: Active | inhibition [23]: 21% | inhibition [24]: 7% | inhibition [25]: -8%

Compound: CC1(C)CC(=O)C2=C(C1)NC1=C(C(=O)CC(C)(C)C1)C2c1ccc(OCc2ccc(C(=O)O)cc2)c(Br)c1
IC50 [1]: 16 µM

Compound: COC(=O)C1=C(C)NC2=C(C(=O)CC(C)(C)C2)C1c1ccc(OCc2ccc(C(=O)O)cc2)cc1 (stereo not drawn)
IC50 [1]: 31 µM

Compound: CCC(=O)Nc1cccc(NC(=O)C(C)Oc2cccc(C)c2)c1 (stereo not drawn)
inhibition [2]: > 70%

Compound: O=C1CCCC2=C1C(c1cc(Cl)c(OCc3ccc(C(=O)O)cc3)c(Cl)c1)C1=C(CCCC1=O)N2
IC50 [1]: 34.7 µM | Kd [3]: 26.2 µM | inhibition [2]: > 70% | Activity [27]: Active | Activity [28]: Active

Compound: O=C1CCCC2=C1C(c1ccc(OCc3cccc(F)c3)c(Br)c1)C1=C(CCCC1=O)N2
inhibition [26]: 26% | IC50 (MV4-11 [4]): > 100 µM | inhibition [22]: inactive

Compound: O=C(O)c1ccc(COc2ccccc2Br)cc1
IC50 [1]: 81 µM

Compound: COc1cc(C2C3=C(CCCC3=O)NC3=C2C(=O)CCC3)ccc1OCc1ccc(C(=O)O)cc1
inhibition [26]: 24%
